The record followed here is PMC4503439, “Dose-Independent ADME Properties and Tentative Identification of Metabolites of α-Mangostin from Garcinia mangostana in Mice by Automated Microsampling and UPLC-MS/MS Methods” (PLoS ONE, 2015).

This data set is described as follows: Tentative identification of metabolites from α-MG by UPLC-MS/MS. The settings on record: mice after intravenous and oral α-MG; S9 fractions after 30-min incubation. In kind it is in vivo. An excerpt:
Probable metabolites of α-MG were identified using the simultaneous full scan MS, MRM and MS/MS modes in a Waters UPLC-XEVO TQ system (Waters Corporation, Milford, USA) to confirm the structures of any metabolites. […] Structural elucidation of the metabolites was based on the fragmentation patterns of parent ion from the MS/MS mode at a collision energy of 10 to 20 eV generating daughter ions. The mass transitions for α-MG was m/z 411.21 → 354.85 (collision energy of 20 eV and collision cell exit potential of 25 eV, respectively). The unknown masses were further analyzed in MS/MS (daughter scan) mode with the electrospray ionization interface used to generate positive and negative ions at a capillary voltage of 3.0 kV, source temperature of 350°C and desolvation gas temperature of 650°C. The MRM methods for identification of possible metabolites generated by phase I and/or II reactions were included.
These compounds were separated on a reversed-phase C18 column (XSELECT CSH, 2.1 mm × 100 mm i.d., 1.7-μm particle size; Waters, Ireland) with a flow rate of 0.35 mL/min. The mobile phase composition was started at 95: 5 (v/v) of distilled water containing 0.1% formic acid (A) and acetonitrile (B) and gradually changed to 35: 65 (v/v) for 30 min, and then switched back to 95: 5 (v/v) for 40 min.

Take `COc1c(O)cc2oc3cc4c(c(O)c3c(=O)c2c1CC=C(C)C)C=CC(C)(C)O4` [M7]: the “Source (samples in which detected)” value is given as “urine, feces, liver, small intestine”.
For `COc1c(O)cc2oc3cc(O)c4c(c3c(=O)c2c1CC=C(C)C)OC(C)(C)C=C4` [M8], the “Source (samples in which detected)” value is recorded as “urine, feces, liver, small intestine”.
With `COc1c(O)cc2oc3c(O)c(O)c(CC=C(C)C)c(O)c3c(=O)c2c1CC=C(C)C` [M10] the entry was “liver, small intestine, feces”; with `COc1c(O)c(O)c2oc3cc(O)c(CC=C(C)C)c(O)c3c(=O)c2c1CC=C(C)C` [M11], “liver, small intestine, feces”; with `COc1c(O)cc2oc3cc(O)c(CC=C(C)C)c(O)c3c(=O)c2c1CC1OC1(C)C` (stereo not drawn) [M12], “liver, small intestine, feces”.
On to `COc1c(O)cc2oc3cc(O)c(CC4OC4(C)C)c(O)c3c(=O)c2c1CC=C(C)C` (stereo not drawn) [M13], for which the “Source (samples in which detected)” value was “liver, small intestine, feces”.
